Data taken from patent publication US20090306046A1, “METHOD OF TREATMENT OF HORMONE DEPLETION INDUCED VASOMOTOR SYMPTOMS” (N.V. ORGANON, priority 2005, published 2009).

What was measured:
[1] = system: women with breast cancer; conditions: results of 15 randomized controlled trials; cited from earlier work
[2] = system: postmenopausal women; assay: Weaning from hormone therapy with mirtazapine as non-hormonal therapy for vasomotor symptoms; format: in vivo; conditions: 15 mg by mouth at bedtime for 6 months from the day hormone therapy is discontinued; postmenopausal women 60-65 year old; in comparison to women on hormone therapy
Protocol: Mirtazapine is used as non-hormonal therapy for vasomotor symptoms. Treatment dose is 15 mg. The length of weaning is 6 months. In this example subjects for treatment have the following characteristics: Postmenopausal women of 60-65 year old who have been on hormone therapy for the treatment of vasomotor symptoms associated with menopause for at least 2 years. They have either a need or a desire to discontinue hormone therapy. They are informed of the risks of mirtazapine. They are informed that successful use of mirtazapine for the relief of vasomotor symptoms associated with menopause has been reported in the medical literature. This method should not be used for women who have a condition or take medications that preclude the use of mirtazapine. A person treated according to this example is instructed to take 15 mg mirtazapine by mouth on the day that they are to discontinue hormone therapy. Mirtazapine is prescribed to be taken at bedtime and after all their evening rituals are done so that they can lay down right after taking mirtazapine. They are instructed to continue taking 15 mg of mirtazapine at bedtime for 6 months after which mirtazapine administration is discontinued. […] Method to measure hot flash frequency: by self rating or according to the method described by Freedman et al J. Clin Endocrin & Metabolism, Vol 80, pp 2354-2358.

| Compound | measures of hot flashes [1] | withdrawal vasomotor symptoms [2] |
| --- | --- | --- |
| CC(=O)O[C@]1(C(C)=O)CC[C@H]2[C@@H]3C=C(C)C4=CC(=O)CC[C@]4(C)[C@H]3CC[C@@]21C [megestrol acetate] | significantly improved | – |
| Clc1cccc(Cl)c1N=C1NCCN1 [clonidine] | significantly improved | – |
| COc1ccc(C(CN(C)C)C2(O)CCCCC2)cc1 (stereo not shown) [venlafaxine] | significantly improved | – |
| CN1CCN2c3ncccc3Cc3ccccc3C2C1 (racemic) [Mirtazapine] | – | absent or strongly reduced |
